Data set [1] concerns human cervical cancer cells (HeLa). Kind of data set: In vitro anticancer activity (MTT) of [Re(CO)3(N—N)(H2O)][OTf] complexes in HeLa cells. In kind it is cell-based. The following applies: concentration at which cell proliferation is inhibited by 50%, read-out: IC50 of Re—(H2O) Complex. On the procedure:
(§1) HeLa (cervical cancer) cell line was cultured using Dulbecco's Modified Eagle's Medium (DMEM) supplemented with 10% fetal bovine serum (FBS). A2780 (ovarian cancer) and A2780CP70 (cisplatin-resistant ovarian cancer) cell lines were cultured as monolayers with Roswell Park Memorial Institute (RPMI)-1640 culture media supplemented with 10% fetal bovine serum. All cell lines were grown in a humidified incubator at 37° C. with an atmosphere of 5% CO2. Cells were passed at 80-90% confluence, using trypsin/EDTA. Cells were tested monthly for mycoplasma contamination with the PlasmoTest™ mycoplasma detection kit from InvivoGen.
(§2) All compounds were dissolved in phosphate-buffered saline (PBS, pH 7.4) to prepare a 1-2 mM stock solution. For single dose studies, only HeLa cells were used. For both the single dose and full dose response, all cells were grown to 80-90% confluence, detached with trypsin/EDTA, seeded in 96-well plates at 2000 cells/well for HeLa cells and 4000 cells/well for A2780 and A2780CP70 cells in 100 μL of growth media, and incubated for 24 hours. The medium was removed and replaced with fresh medium (200 μL) containing a single concentration of a rhenium(I) complex or media. The cells were then incubated for 4 hours, and then the cells were dosed with 365 nm for 1 hour (one plate under the same dosing conditions was kept outside the incubator in the dark as a control). After exposure to light, the plates incubated for an additional 44 hours, the medium was removed from the wells, and (3(4,5-dimethylthiazol-2-yl)-2,5-tetrazolium bromide (MTT) in RPMI (200 μL, 1 mg/mL) was added. After 4 hours, the MTT/RPMI solution was removed, and the formazan crystals were dissolved in 200 μL of an 8:1 mixture of DMSO and pH 10 glycine buffer. The absorbance at 570 nm in each well was measured using a BioTek Synergy™ HT plate reader. Cell viability was determined by normalizing the absorbance of the treated wells to untreated wells. All compounds that had less than 50% cell viability were analyzed using a full dose response. The % viability data is an average of three independent experiments with six replicates per concentration. The same procedure was followed as above for the full dose response but instead, after 24 hours, varying concentrations of the desired compounds were added. Cell viability was again determined by normalizing the absorbance of the treated wells to untreated wells The concentration of the compound versus % viability was plotted to produce dose-response curves, which were analyzed using a logistic sigmoid function fit with MagicPlot Pro™ software. The reported IC50 values are the average of three independent experiments with six replicates per concentration level.
The in vitro anticancer activities of these complexes were tested in human cervical cancer cells (HeLa), and the results are provided below in Table 1. […] The Hill-Slope is a quantitative measure of the steepness of the dose-response curve.

The subject of data set [2] is HeLa (cervical cancer) cell line. Kind of data set: MTT cell viability of phosphino-Re(I) complexes in HeLa cells, dark or 365 nm light. In kind it is cell-based, human. The following applies: for Single Dose Cell Viability (%) Light / Single Dose Cell Viability (%) Dark: HeLa cells, single concentration; for Single Dose Cell Viability (%) Dark: kept in the dark. On the procedure: as §1, §2

Data set [3] has as its system A2780 (ovarian cancer) cell line. Description: MTT cell viability of phosphino-Re(I) complexes in A2780 cells, dark or 365 nm light. The format is cell-based. As for the experimental part:
as §1, §2

For data set [4], the system named is A2780CP70 (cisplatin-resistant ovarian cancer) cell line. Kind of data set: MTT cell viability of phosphino-Re(I) complexes in A2780CP70 cells, dark or 365 nm light. In kind it is cell-based. On the procedure: as §1, §2
The subject of data set [5] is wild-type (KB) cancer cells. Description: Cytotoxicity in wild-type KB cancer cells. The format is cell-based. As for the experimental part:
(§3) The Re complex containing the 2,9-dimethyl phen ligand was also tested in wild-type (KB) and cisplatin-resistant (KBCP20) cancer cells.

Data set [6] deals with cisplatin-resistant (KBCP20) cancer cells. Kind of data set: Cytotoxicity in cisplatin-resistant KBCP20 cancer cells. In kind it is cell-based. The following applies: for IC50: cisplatin-resistant cells, read-out: IC50 KBCBP20; for RF (resistance factor): ratio of IC50 values in cisplatin-resistant versus wild-type cell lines. As for the experimental part: as §3
The mark [7] stands for this setting: Table 3, full dose response, 365 nm for 1 hour, read-out: IC50 Value (μM) Light.
Setting [8] is: Table 3, full dose response, dark, read-out: IC50 Value (μM) Dark.
The mark [9] stands for this setting: Table 4, HeLa, 365 nm for 1 hour, read-out: IC50 Value (μM) HeLa (light).
Where [10] appears, read: Table 4, HeLa, dark, read-out: IC50 Value (μM) HeLa (dark).
[11] abbreviates: A2780, 365 nm for 1 hour, read-out: IC50 Value (μM) A2780 (light).
[12] abbreviates: A2780, dark, read-out: IC50 Value (μM) A2780 (dark).
Where [13] appears, read: A2780CP70, 365 nm for 1 hour, read-out: IC50 Value (μM) A2780CP70 (light).
Setting [14] is: A2780CP70, dark, read-out: IC50 Value (μM) A2780CP70 (dark).

Where two headings read alike, the source gives them in different places. Bounds are passed on as bounds.

One may read the IC50 as the point on the concentration scale where inhibition reaches its midpoint. [Re(CO)3(N—N)(H2O)][OTf] [bpy]: in data set [1], the IC50 was 15 ± 5 µM.

As for Re(CO)3(dmphen)(THP) [THP-dmphen (5)], the “Single Dose Cell Viability (%) Light” value in data set [2] (365 nm for 1 hour) turned out to be 1.3 ± 1.1%. The “Single Dose Cell Viability (%) Dark” value in data set [2] worked out at 61.8 ± 6.2%. Besides, the IC50 in data set [2] (setting [7]) is 9.6 ± 4.2 µM; in data set [2] (setting [8]) it was greater than 200 µM.

For Re(CO)3(bpy)(THP) [THP-bpy (8)], the “Single Dose Cell Viability (%) Light” value in data set [2] (365 nm for 1 hour) worked out at 73.1 ± 6.4%. Further, the “Single Dose Cell Viability (%) Dark” value in data set [2] is on record as 98.9 ± 1.6%.

On to Re(CO)3(bpy)(PTA) [PTA-bpy (7)], for which the “Single Dose Cell Viability (%) Light” value in data set [2] (365 nm for 1 hour) amounted to 90.5 ± 4.1%. Besides, in data set [2], the “Single Dose Cell Viability (%) Dark” value is listed as 97.9 ± 3.7%.

As to “Re(CO)3(dmobpy)(DAPTA) [DAPTA-dmobpy (15)]”, the half-inhibitory concentration (IC50) in data set [2] (setting [7]) was 26.4 ± 9.2 µM; in data set [2] (setting [8]) it was greater than 200 µM.

Regarding “[Re(CO)3(N—N)(H2O)][OTf] [4,7-diphenyl phen]”, the IC50 in data set [1] came to 15 ± 7 µM.

As to Re(CO)3(dmobpy)(PTA) [PTA-dmobpy (13)], the “Single Dose Cell Viability (%) Light” value in data set [2] (365 nm for 1 hour) turned out to be 96.0 ± 6.8%. Besides, in data set [2], the “Single Dose Cell Viability (%) Dark” value turned out to be 98.2 ± 3.2%.

“Re(CO)3(dmbpy)(DAPTA) [DAPTA-dmbpy (12)]”: the figures for the half-inhibitory concentration (IC50) in data set [2] (setting [7]) and in data set [2] (setting [8]) were 60.3 ± 18.2 µM and greater than 200 µM, respectively.

In the case of Re(CO)3(phen)(PTA) [PTA-phen (1)], the “Single Dose Cell Viability (%) Light” value in data set [2] (365 nm for 1 hour) was found to be 99.6 ± 0.7%. For the same compound, in data set [2], the “Single Dose Cell Viability (%) Dark” value is 99.4 ± 1.0%. The concentration for half-maximal inhibition (IC50) was greater than 200 µM in data set [2] (setting [7]); greater than 200 µM in data set [2] (setting [8]); greater than 200 µM in data set [2] (setting [9]); greater than 200 µM in data set [2] (setting [10]); 53.1 ± 2.6 µM in data set [3] (setting [11]); greater than 200 µM in data set [3] (setting [12]). The IC50 in data set [4] (setting [13]) and in data set [4] (setting [14]) was greater than 200 µM throughout.

With “[Re(CO)3(N—N)(H2O)][OTf] [4,4′-dimethyl bpy]”, in data set [1], the IC50 worked out at 5.8 ± 3.4 µM.

As for “[Re(CO)3(N—N)(H2O)][OTf] [4,4′dimethylester bpy]”, in data set [1], the IC50 stood at 210 ± 30 µM.

Regarding `Cc1ccc2ccc3ccc(C)nc3c2n1.O.O=S(=O)([O-])C(F)(F)F.[C-]#[O+].[C-]#[O+].[C-]#[O+].[Re+]` [2,9-dimethyl phen, [Re(CO)3(N—N)(H2O)][OTf]], the IC50 in data set [1] stood at 0.97 ± 0.21 µM; in data set [5], 0.4 µM; in data set [6] it was 2 µM. Further, in data set [6], the “RF (resistance factor)” value is listed as 5.

As to “Re(CO)2(phen)(DAPTA)(H2O) [DAPTA-phen dicarb (3b)]”, the IC50 in data set [2] (setting [9]) and in data set [2] (setting [10]) was greater than 200 µM throughout.

On to “[Re(CO)3(N—N)(H2O)][OTf] [4,4′-dimethoxy bpy]”, for which the IC50 in data set [1] was determined as 8.8 ± 2.4 µM.

With [Re(CO)3(N—N)(H2O)][OTf] [phen], the IC50 in data set [1] worked out at 9.7 ± 5.8 µM.

In the case of “Re(CO)3(dmphen)(DAPTA) [DAPTA-dmphen (6)]”, the IC50 was 19.2 ± 2.9 µM in data set [2] (setting [7]) and greater than 200 µM in data set [2] (setting [8]).

With Re(CO)3(dmbpy)(THP) [THP-dmbpy (11)], in data set [2] (365 nm for 1 hour), the “Single Dose Cell Viability (%) Light” value amounted to 30.7 ± 14.6%. Moreover, the “Single Dose Cell Viability (%) Dark” value in data set [2] is on record as 93.3 ± 6.0%.

As to Re(CO)3(dmphen)(PTA) [PTA-dmphen (4)], in data set [2] (365 nm for 1 hour), the “Single Dose Cell Viability (%) Light” value worked out at 87.0 ± 8.0%. The “Single Dose Cell Viability (%) Dark” value in data set [2] is given as 90.0 ± 8.8%.

For Re(CO)3(dmbpy)(PTA) [PTA-dmbpy (10)], in data set [2] (365 nm for 1 hour), the “Single Dose Cell Viability (%) Light” value was 82.5 ± 9.7%. In addition, in data set [2], the “Single Dose Cell Viability (%) Dark” value was determined as 94.4 ± 4.9%.

For Re(CO)3(phen)(DAPTA) [DAPTA-phen (3)], the IC50 in data set [2] (HeLa, 365 nm for 1 hour, w/ oxyhemoglobin, read-out: IC50 Value (μM) HeLa (light)) is greater than 200 µM; in data set [2] (HeLa, dark, w/ oxyhemoglobin, read-out: IC50 Value (μM) HeLa (dark)) it was greater than 200 µM; in data set [2] (setting [7]) it was 5.9 ± 1.4 µM; in data set [2] (setting [8]) it was greater than 200 µM; in data set [2] (setting [9]), 5.9 ± 1.4 µM; in data set [2] (setting [10]), greater than 200 µM. Besides, the half-inhibitory concentration (IC50) in data set [3] (setting [11]) is 2.2 ± 1.1 µM; in data set [3] (setting [12]), greater than 200 µM; in data set [4] (setting [13]) it was 3.2 ± 0.7 µM; in data set [4] (setting [14]), greater than 200 µM.

Take `N.N.[Cl][Pt][Cl]` [cisplatin, reference compound]: the IC50 in data set [1] was found to be 3 ± 1.2 µM; in data set [5], 0.8 µM; in data set [6], 50 µM. Besides, in data set [6], the “RF (resistance factor)” value is listed as 62.5.

As for Re(CO)3(bpy)(DAPTA) [DAPTA-bpy (9)], the IC50 in data set [2] (setting [7]) was 14.9 ± 3.2 µM; in data set [2] (setting [8]) it was greater than 200 µM.

With Re(CO)3(phen)(THP) [THP-phen (2)], in data set [2] (365 nm for 1 hour), the “Single Dose Cell Viability (%) Light” value was determined as 2.5 ± 1.8%. Besides, in data set [2], the “Single Dose Cell Viability (%) Dark” value was 91.8 ± 8.7%. Besides, the IC50 was 26.4 ± 9.2 µM in data set [2] (setting [7]); greater than 200 µM in data set [2] (setting [8]); 26.4 ± 9.2 µM in data set [2] (setting [9]); greater than 200 µM in data set [2] (setting [10]); 4.6 ± 1.4 µM in data set [3] (setting [11]); greater than 200 µM in data set [3] (setting [12]). Also, the IC50 was 29.9 ± 7.7 µM in data set [4] (setting [13]) and greater than 200 µM in data set [4] (setting [14]).

On to Re(CO)3(dmobpy)(THP) [THP-dmobpy (14)], for which the “Single Dose Cell Viability (%) Light” value in data set [2] (365 nm for 1 hour) turned out to be 12.7 ± 5.8%. In addition, in data set [2], the “Single Dose Cell Viability (%) Dark” value worked out at 57.5 ± 11.0%. For the same compound, the IC50 in data set [2] (setting [7]) turned out to be 68 ± 4.3 µM; in data set [2] (setting [8]) it was 72.6 µM.

Values taken from US10973849B2, “Rhenium complexes and methods of use for treating cancer” (CORNELL UNIVERSITY, priority 2016, dated 2021).
